Experimental data: patent US10471063B2, “Drug combination of PDE3/PDE4 inhibitor and muscarinic receptor antagonist” (VERONA PHARMA PLC, priority 2013, dated 2019)
Like-named read-outs stand apart in the source and are kept apart here. Marks after values point to notes of the source that are not given here.

Tests used:
[1] = tested on: human isolated bronchial preparations; experiment: Inhibition of EFS (10 Hz)-induced contraction of human isolated bronchial rings; type: cell-based
Experimental: Regions of macroscopically normal lungs were taken from uninvolved areas resected from 24 subjects (11 male and 13 female, 60.1±1.6 years old) undergoing lobectomy surgery for lung cancer, but without a history of chronic airway disease.
Airways were immediately placed into oxygenated Krebs-Henseleit buffer solution (KH) (mM: NaCl 119.0, KCl 5.4, CaCl2 2.5, KH2PO4 1.2, MgSO4 1.2, NaHCO3 25.0, glucose 11.7; pH 7.4) containing the cyclooxygenase (COX) inhibitor indomethacin (5.0 μM), and transported at 4° C. from the “Regina Elena National Cancer Institute” or the “Sant' Andrea Hospital” to the Respiratory Research Laboratory in the Surgery and Medicine Faculty of “Tor Vergata University”, Rome, Italy. None of the subjects were chronically treated with theophylline, β2-agonists or glucocorticosteroids. Serum IgE levels determined on the day of surgery were in the normal range. Preoperative lung function parameters were generally normal and there were no signs of respiratory infections.
In the laboratory, airways were dissected from connective and alveolar tissues. Then, segmental bronchi were isolated and stored overnight in KH buffer solution at refrigeration temperature. […]
Human bronchi were placed in organ baths containing KH buffer solution (37° C.) medicated with indomethacin (5.0 μM), bubbled with 95% O2/5% CO2 and suspended under passive tension (0.5-1.0 g). […] Changes in isometric tension were measured with a transducer (Fort 10 WPI, Basile, Instruments, Italy) and the tissue responsiveness was assessed by acetylcholine (100 μM); when the response reached a plateau, rings were washed three times and allowed to equilibrate for 45 min. […]
Bronchial contractile tension induced by EFS was measured as a percentage of control bronchi, and polynomial curves were constructed by fitting models of biological data using nonlinear regression as described elsewhere (Motulsky and Christopoulos, 2004). […]

[2] = tested on: human isolated bronchi; experiment: Duration of action on EFS (3, 10, 25 Hz)-contracted human isolated bronchi, RPL554 and glycopyrronium at EC30; type: cell-based; conditions: administered alone
Experimental: Bronchial rings from 6 patients were incubated in Krebs-Henseleit solution (37° C.) aerated with O2/CO2 (95/5%) under 0.5-1.0 g tension. The duration of action (30% maximal relaxation, EC30) of RPL554 and glycopyrronium, alone or in combination, was studied in tissue contracted with 3, 10 or 25 Hz electrical field stimulation (EFS). Bronchial tone was expressed as % of maximal response to papaverine (Emax) and the area under the curve (AUC) of the contractile response was assessed. Drug mixture effects were analyzed by Bliss Independence theory. Values (n=3) are mean±SEM.

[3] = tested on: human isolated bronchioles (small bronchi <1 mm diameter); experiment: Relaxation of small human bronchi in precision cut lung slices contracted with carbachol (EC70); type: cell-based; conditions: for IC50: Homo sapiens, relaxation of bronchioles, CCh EC70, mean±SEM, n=3, read-out: pD2 (negative logarithm of IC50) (converted)
Experimental: Precision cut lung slices (PCLSs) from 6 patients were incubated in Krebs-Henseleit solution (37° C.) aerated with O2/CO2 (95:5%). The concentration response to RPL554 and glycopyrronium, administered alone and in combination at isoeffective concentrations, was assessed at sub-maximal contraction (70% maximum, EC70) induced by carbachol (CCh). […] Drug mixture effects were analyzed by Bliss Independence theory. Values (n=3) are mean±SEM.

[4] = Mean arterial blood pressure in bombesin-treated anaesthetised guinea pigs; type: in vivo; conditions: RPL554 20 μg/kg iv (combination: + 2 μg/kg atropine)
Experimental: (§1) Guinea pigs were anaesthetised and ventilated. Airway obstruction was induced by the intravenous administration of bombesin (2 μg/ml; 5 ml/hr). Bronchodilation was induced by the iv. administration of RPL554 alone at various doses, or in combination with sub maximal doses of atropine (2 μg/kg). […] Total lung resistance (RL) and mean arterial blood pressure were measured. Data are expressed as % reduction in airways obstruction or blood pressure.

[5] = tested on: passively sensitized human isolated bronchi; experiment: Contraction induced by histamine in passively sensitized human bronchi pre-incubated with RPL554; type: cell-based
Experimental: Human isolated bronchial rings were rotated overnight at room temperature in tubes containing KH buffer solution in the absence (non-sensitized control rings) or the presence of 10% vol^−1 sensitizing serum (sensitized rings) as described elsewhere (Watson et al., 1997; Rabe, 1998). Subjects suffering from atopic asthma (total IgE>250 U ml^−1 specific against common aeroallergens) during exacerbation provided signed consent for serum donation. Sera was prepared by centrifugation of whole blood and sera samples were frozen at −80° C. in […] until required.
The next morning, after removal of adhering alveolar and connective tissues, bronchial rings were transferred into an organ bath containing KH buffer (37° C.) and continuously gassed with a 95% O2/5% CO2. Tissues were pre-incubated for 30 min with RPL554 (1, 10 and 100 μM) and then followed (without washing) by the construction of concentration responses curve to histamine (10 nM-1 mM) in the presence of RPL554.
Appropriate curve-fitting to a sigmoidal model was used to calculate the effect (E), the Emax and the concentration required to cause a 50% maximal effect (EC50). The equation used was log [agonist] vs. response, Variable slope, expressed as Y=Bottom+(Top−Bottom)/{1+10^[(Log EC50−X)*HillSlope]} (Motulsky and Christopoulos, 2004; Goodman et al., 2008). E/Emax was expressed as percentage of Emax elicited by the contractile agents; EC50 values were converted to pD2 for statistical analysis (Goodman et al., 2008) and the relaxant responses were expressed as a percentage of papaverine (500 μM) induced relaxation.

[6] = tested on: airways obstruction induced by bombesin in guinea pigs; experiment: Reversal of bombesin-induced airways obstruction (total lung resistance); type: in vivo
Experimental: as §1

[7] = tested on: human isolated bronchial rings; experiment: Relaxation of human isolated bronchial rings pre-contracted with acetylcholine (EC70); synergy analysis (Bliss Independence, Berenbaum); type: cell-based
Description: In the laboratory, airways were dissected from connective and alveolar tissues. Then, segmental bronchi were isolated and stored overnight in KH buffer solution at refrigeration temperature. […] Bronchial rings were mounted on hooks in the organ baths where one hook was attached with threaded to a stationary rod and the other hook tied with thread to an isometric force displacement transducer. […] Then, concentration response curves were constructed to test individual compound RPL554 and muscarinic receptor antagonist alone; as well as RPL554 administered in combination with a muscarinic receptor antagonist in order to produce isobolar graphs as described elsewhere (Greco et al., 1995; Tallarida, 2001; Goldoni and Johansson, 2007; Boik et al., 2008; Lee, 2010). […] Goodman et al., 2008). E/Emax was expressed as percentage of Emax elicited by the contractile agents; […] The analysis of the potential synergism between RPL554 plus muscarinic receptor antagonist was measured by applying the Berenbaum method, the Bliss Independence (BI) criterion and the Loewe Additivity (LA) model through curved isoboles (Berenbaum, 1977; Greco et al., 1995; Grabovsky and Tallarida, 2004; Tallarida, 2006; Goldoni and Johansson, 2007; Tallarida and Raffa, 2010). […] Lee, 2010). The BI theory for two agents is expressed by the following equation: E(x,y)=Ex+Ey-(Ex*Ey), where E is the fractional effect, and x and y are the concentrations of two compounds in a combination experiment. If the combination effect is higher than the expected value from the above equation, the interaction is considered synergistic, while if this effect is lower, the interaction is antagonistic. […] In this study, the BI equation was characterized by X=RPL554 and Y=muscarinic receptor antagonist. […] The additive response (Eab) for each dose combination with respect to B was then calculated by insertion of B into EB=f(B). The difference between the observed relaxation response to the combination doses and the additive response was calculated and analysed using a one sample t-test and for multiple comparisons, the probability was adjusted for multiple comparisons using a Bonferroni correction. For illustrative purposes, the 1:1 dose combinations were analysed for synergy. […] Tallarida, 2001; Goldoni and Johansson, 2007; Boik et al., 2008; Lee, 2010).

In the case of `COc1cc2c(cc1OC)-c1cc(=Nc3c(C)cc(C)cc3C)n(CCNC(N)=O)c(=O)n1CC2` [RPL554, 9,10-Dimethoxy-2-(2,4,6-trimethylphenylimino)-3-(N-carbamoyl-2-aminoethyl)-3,4,6,7-tetrahydro-2H-pyrimido[6,1-a]isoquinolin-4-one], the Emax at 100 µM ([1]; Homo sapiens, RPL554 100 μM, 10 Hz EFS, read-out: Emax, inhibition of contractile response induced by EFS) is reported as 91.3 ± 3.37%, the “T1/2 (offset, time to evoke half of maximal relaxation)” value ([1]; RPL554 100 μM, 10 Hz EFS) is reported as 23.7 ± 12.3 min and the “Duration of inhibition of EFS contractile response after exposure” value ([1]; after termination of drug exposure) is reported as “at least 5 h”. For the same compound, the “Time for which the effect was detectable” value [2] was 4 h, the “Time of maximal relaxation” value [2] was 160 ± 20 min and the “Effect on CCh-induced contraction” value [3] was “abolished”. The IC50 [3] was 1000 nM, the “reduction in mean arterial blood pressure” value [4] was 37.3+6.7% and the Emax at 1 µM ([5]; Homo sapiens, RPL554 1 uM, mean ± SEM, n=5) was 70.3 ± 2.7%. The Emax at 10 µM ([5]; Homo sapiens, RPL554 10 uM, mean ± SEM, n=5) was 58.1%, the pD2 of histamine ([5]; RPL554 1 uM) was 4.97 ± 0.07*** and the pD2 of histamine ([5]; RPL554 10 uM) was 4.98. The “Effect on contraction induced by histamine” value ([5]; RPL554 100 μM) was “completely abolished”, the “% Reduction in airways obstruction” value ([6]; RPL554 10 μg/kg iv (combination: + atropine 2 μg/kg)) was 7.4 + 1.9% and the “% Reduction in airways obstruction” value ([6]; RPL554 20 μg/kg iv (combination: + atropine 2 μg/kg)) was 24.6 + 4.3%. The “% Reduction in airways obstruction” value ([6]; RPL554 40 μg/kg iv (combination: + atropine 2 μg/kg)) was 55.2 + 6.2%, the “% Reduction in airways obstruction” value ([6]; RPL554 80 μg/kg iv (combination: + atropine 2 μg/kg)) was 65.1 + 5.3% and the Emax ([7]; acetylcholine EC70 pre-contraction, percentage of papaverine (500 μM) relaxation, mean±SD, n=5, read-out: Emax (relaxation)) was 100%. The EC50 ([7]; relaxation of acetylcholine pre-contracted bronchi, n=5, read-out: EC50 (geomean, 95% CI)) was 21200 nM.

With `CN1[C@@H]2CC[C@H]1C[C@@H](OC(=O)C(CO)c1ccccc1)C2` (some centres unmarked) [atropine, reference compound] the “reduction in airways obstruction” value ([6]; atropine 2 μg/kg alone) was 22.3 ± 4.9%, the EC50 ([7]; read-out: EC50 (geomean, 95% CI)) was 1180 nM and the Emax ([7]; read-out: Emax (relaxation)) was 66 ± 14%.

With `C[N+]1(C)CCC(OC(=O)C(O)(c2ccccc2)C2CCCC2)C1` (centres unmarked) [glycopyrronium, reference compound] the “Time for which the effect was detectable” value [2] was 4 h, the “Time of maximal relaxation” value [2] was 50 ± 10 min and the “Effect on CCh-induced contraction” value [3] was “abolished”. For the same compound, the IC50 [3] was 0.631 nM.
